Measurements published in US6458760B1, “Method for treating tissue damaged from ischemia” (Henry Ford Health System, priority 1998, dated 2002).
Residues, ends and D or L forms follow the SMILES beside them. *: point of attachment. Cbz = O=C(OCc1ccccc1)*; CHN2 = [N-]=[N+]=C*; Bn = c1ccc(C*)cc1

Experiments:
Calpain = Calpain inactivation rate, fluorimetric progress curves; assay type: biochemical; conditions: second order inactivation rate constant corrected for substrate; substrate Suc-Leu-Tyr-AMC; pH 7.5, 37° C.
Description: (§1) (“Tian, et al.”) the contents of which are incorporated by reference. More specifically, the value of kobs is given by the slope of a plot of ln [P]∞−[p]t versus t (time). The apparent second-order rate contact for inactivation, k2app was calculated as kobs/[I]. The inactivation-rates (kobs) in the presence of substrate and for different inhibitor concentrations for calpain, cathepsin B and cathepsin L are determined according to the method of Tian, et al. However, k2app is corrected for the presence of substrate (s) to give the second order rate constant k^12app, calculated as k^12app=k2app (1+[s]/Km).
Calpain was assayed fluorimetrically in 1 ml of 50 mM Tris/acetate buffer, pH 7.5, containing 5 mM CaCl2, 2.5 mM DTT(dithiothreitol), 0.1% Triton X-100 at 37° C., using 2.5×10^−4 M Suc-Leu-Tyr-aminomethylcoumarin (AMC) (Novabiochem, Switzerland) as substrate and 50nM (final concentration) of enzyme. The appearance of the 7-amino-4 methylcoumarin product was recorded continuously with a Perkin Elmer 650-10S spectrofluorimeter, a SPEX Fluorolog 1680, or SLM 8000C fluorescence spectrometer with excitation at 370 nm and emission at 460 nm.
Typically, 5 μL of the substrate solution (50 mM stock in DMSO) was added to 1 mL of buffer. Varying concentrations of the inhibitor solution (10 μL of a DMSO […] solution) were added, followed by 10 μL of calpain in the assay buffer. After allowing the reaction mixture to incubate for 2-5 min, during which time a steady baseline level of fluorescence was measured, calcium was added in a 10-μL volume to initiate hydrolysis of the fluorogenic substrate, and the resulting increase in fluorescence was monitored continuously. When inhibitors were tested at very low concentrations, the enzyme concentration was reduced to maintain a minimum of a 10-fold excess of inhibitor over enzyme.

Cathepsin B = Cathepsin B (Homo sapiens, UniProt P07858); experiment: Cathepsin B inactivation rate, fluorimetric progress curves; assay type: biochemical; conditions: second order inactivation rate constant corrected for substrate; pH 5.4, 30° C.
Description: as §1
Cathepsins B and L were preactivated with […] DTT in 50 mM sodium acetate buffer, pH 5.4, 1 mM EDTA for 2 h at 4° C. and assayed in the same buffer with 0.01% Brij [poly(oxyethylene) glycol dodecyl ether]. […] The inhibitors (0.1-1 μM) and substrate were added to the reaction mixture to incubate for 5 min in a cuvette thermostated at 30° C. Then, approximately 0.4 nM and 0.1 nM final concentration of cathepsin B and cathepsin L, respectively, were used to initiate the reaction. […] The progress curves were analyzed over at least 3 half lives to calculate the rate constants of inactivation in accordance with the procedure described by Crawford, C. Mason, R. W., Wilkström, P., and Shaw, E. in an article entitled “The design of peptidyldiazomethane inhibitors to distinguish between the cysteine proteinases calpain II, cathepsin L and cathepsin B.”, Biochem. J. 1988, 253, 751-758, the contents of which are incorporated by reference. The rates of inactivation of various substrates are tabulated hereinbelow.

[1] = Loss of body weight after MCA occlusion (Example 8); assay type: in vivo, rat
Description: The animal is able to move about and take water as needed. However, animals with severe stroke that are not able to maintain intake of water are supplemented with daily subcutaneous Lactated Ringers solution. Daily body weights are followed to assess nutritional status.
CP-1 dissolved in 1% DMSO and isotonic saline was given intravenously to Wistar rats (15 μl/min) at a concentration of 50 μM for four hours beginning at the end of three hours of MCA occlusion, in accordance with the protocol described hereinabove. Control animals underwent a similar protocol, but they had injected therein a 1% DMSO/Saline as the vehicle for four hours beginning at the end of a three hour MCA occlusion. All animals which survived 7 days were sacrificed and the infarct volume was measured 7 days after the MCA occlusion.
The % loss of body weight from CP-1 treated animals and the control group on Day 1 and Day 7 are tabulated hereinbelow.

Question: With `[N-]=[N+]=CC(=O)C(COCc1ccccc1)NC(=O)C(Cc1ccccc1)NC(=O)OCc1ccccc1` (stereo not drawn) [CP-1, benzyloxycarbonyl-Phe-Ser(OBz)-CHN2] (Cbz-Phe-Ser(Bn)-CHN2; configuration not given here) as the compound, how does the “Calpain k′2app” value (Calpain) read?
Answer: Its value is under 10 M^−1S^−1.

Question: What about the “Cathepsin B k′2app” value (Cathepsin B) of the same compound?
Answer: The value was 8,800 M^−1S^−1.

Question: What about the “% loss of body weight Day 1” value ([1]; 50 μM i.v. 4 h, Example 8, control 19 ± 2.0) of the same compound?
Answer: The value was 16 ± 1.4%.

Question: And the “% loss of body weight Day 7” value ([1]; 50 μM i.v. 4 h, Example 8, control 32 ± 3.0)?
Answer: The value was 28 ± 3.4%.

Question: What about the “loss of mean body weight, treated versus control” value ([1]; Day 1 and Day 7) of the same compound?
Answer: The value was “no significant difference”.
